Test results published in BindingDB's records for doi:10.1021/cb9000102 (Pfizer, 2009).

Target: Biotin carboxylase (Escherichia coli (strain K12), UniProt P24182)
Test: ACCase-Coupled Enzyme Assay
Conditions: pH 8; 23 °C
Protocol: To each well of the plate consisting of 50 mM Hepes (pH 8.0), 100 mM KCl, 1 mM TCEP, 5 mM MgCl2, 0.1 mg/mL BSA, 0.005% (vol/vol) Tween 20, 30 nM E. coli BC, 50 nM E. coli CT, 50 nM biotinylated E. coli BCCP, and 0.5 unit/mL E. coli purine nucleoside phosphorylase was added. […] Reaction progress was monitored by the increase in absorbance at 360 nm. […] Inhibition data were fit to the standard IC50 equation.

Row | SMILES | IC50 [µM]
1 | Nc1nccc(C(=O)c2ccccc2)n1 [amino pyrimidine, 7] | 8.2
2 | CCCCN(Cc1ccccc1)C(=O)c1cnc(N)o1 [amino-oxazole, 2b] | 1.29
3 | Cc1nc(-c2ccnc(N)n2)cs1 [amino pyrimidine, 6] | 59.3
4 | Cc1ccccc1CN(Cc1ccc2c(c1)OCCO2)C(=O)c1cnc(N)o1 [amino-oxazole, 2d] | 0.007
5 | Cc1nc2nc(N)[nH]c2c(O)c1Cc1ccccc1 [amino imidazo-pyridinone, 8] | 2.4
